Source: PMC11148078, “Potent activity of polymyxin B is associated with long-lived super-stoichiometric accumulation mediated by weak-affinity binding to lipid A” (Nature Communications, 2024)
pKd: −log10 of the molar value. Read-outs that look alike come from different tables or passages of the source. Bridge positions count the residues as written; N and C are the ends. Square brackets hold non-standard residues; d marks the D form. Peptide text beside a SMILES is read from it. * marks the point of attachment. X1 = CC[C@H](C)CCCCC(=O)*; Dab = NCC[C@H](N)C(=O)O

How the values were obtained:
bacterial cells = conditions: different methods, ref [27]–[31], cited from earlier work
Experimental: Investigations into the binding of polymyxins to bacterial cells have generally relied on whole-cell and plate-based equilibrium approaches. Different methods have produced equilibrium binding constants (KDs) for polymyxin B ranging from 400 nM up to greater than 100 µM[27]–[31], which are, in some cases, multiple orders-of-magnitude higher than the reported cellular potency of these antibiotics. However, these approaches are likely complicated by the rapid kill-kinetics of polymyxins, non-specific binding of polymyxins to plate surfaces, assumptions of a simple binding mechanism, an inoculum ...

wt-OMVs = experiment: SPR chaser analysis (residence time), wt-OMVs; assay type: binding, E. coli; conditions: for t1/2: n≥3, (SD)
Experimental: The off-rate of the tightly bound fraction was estimated using a chaser analysis, where OMVs were pre-saturated with polymyxin B and then re-saturated after an extended time interval (Supplementary Information Fig. S11A). […] A t1/2 of >6 h was determined for polymyxin B binding to OMVs at both 25 and 37 °C (SI Table S3). The t1/2 of brevicidine, also measured by chaser analysis, was approximately 1 h on both wt-OMVs and polymyxin-resistant-OMVs (SI Table S3).
Binding and kinetic analysis of SPR-OMV assays […]
To determine the residence time of the test compound with OMVs, the ‘chaser method’ was used because it accounts for drift that can occur in the system over long incubation times 13. OMVs were loaded onto the chip as described above then 5 µM polymyxin B was injected using the ‘low-sample consumption’ setting for 300 sec ([…] flow rate), followed by a 240 sec dissociation time. A second dose of 5 µM polymyxin B was then injected for 60 sec ([…]) to assure saturation followed by a 2 h dissociation time prior to the ‘chaser’, a 60 sec pulse of 5 µM polymyxin B. The RUs of associated polymyxin B were determined 120 sec after the start of the dissociation. The change in RUs from before dosing to after the second dose, and the change in RUs from prior to the ‘chaser’ dose and 120 sec after the start of its dissociation were used to calculate the fraction occupancy of the material and the residence time/half-life as described 13. […]
PMBN) to LPS for 20 min. […]
20 sec with a Solarus plasma cleaner (Gatan). Grids were blotted and plunge-frozen by Vitrobot (ThermoFisher Scientific, Waltham, MA) at 4°C, 100% relative humidity, blot force 7, and a 3 sec […]
TEM data collection was performed using a Titan Krios G3i (ThermoFisher Scientific, Waltham, MA) operating at 300 kV equipped with a BioQuantum energy filter and a K3 Summit direct electron detector operating at a nominal magnification of 105,000x (0.838 Å/pixel), an energy slit width of 20 eV, defocus range -1 to -3 μm, 3-sec exposure time, 60 frames per movie, a total electron fluence of ~64 e/Å2. Microscope and camera automation was accomplished by SerialEM14, and image processing (motion correction & CTF estimation) was performed using […]
Standard cryo-EM image processing software and methods were incompatible with the vesicle images, so a blinded visual scoring method for image analysis was used. Approximately 50 images from each sample and treatment condition that each contained at least one OMV (pooled in a single folder and blinded) were scored for number of vesicles touching (0-10+), and if the vesicle membranes appeared disrupted or abnormal. Sampling was not completely random as images of vesicles could not be obtained from areas with significant clumping. Images shown in […]

[1] = system: polymyxin B-resistant E. coli cells expressing mcr-1; experiment: Whole cell SPR, E. coli expressing mcr-1; assay type: binding
Experimental: Bacterial strains were grown in LB or LB with 0.2% arabinose and carbenicillin (50 μg/mL) to log phase (OD600 approximately 0.4–0.6), centrifuged for 10 min at 2500 × g (3500 rpm using a tabletop centrifuge), and re-suspended in PBS to a final OD600 of approximately 5. SPR on whole bacterial cells was performed and analyzed as described for OMVs on C1 chip, but with an additional carry-over wash prior to the capture. Regeneration of the chip after whole cell binding also required additional steps ([…] flow rate): (1) PBS supplemented with 32 mM MgCl2 for 120 s, (2) 2.5 M NaCl for 30 s, (3) 0.5% SDS (Desorb 1, Cytiva) for 60 s with carry over controls between.

S. aureus WT = assay type: cell-based
Experimental: (§1) Bacterial strains and plasmids are listed in SI Table S5. LB growth media was prepared according to manufacturer’s instructions and supplemented with 0.2% arabinose and carbenicillin (50 μg/mL) for the strains containing pBAD24-mcr1 plasmid. Cultures were started by inoculating 3 ml LB with 1–2 colonies from fresh overnight plates and grown at 37 °C until in log phase. Modified minimal inhibitory concentration (MIC) assays were performed in 96-well round bottom polystyrene plates (Corning) with a final volume of 100 µl in LB supplemented with tween-80 at 0.0005%. […] Polymyxin B sulfate (TCI Co. Ltd), polymyxin B nonapeptide (PMBN) (Sigma), and brevicidine (Genentech) were diluted directly in the assay plates. Bacteria were diluted in LB with tween-80 0.0005% and added to a final OD600 of 0.0005. Growth was measured via OD600 on a SpectraMax M5 plate reader after overnight static growth at 37 °C with humidity.

[2] = system: E. coli cells, OMVs, and LPS; experiment: SPR apparent association rate averaged over cells, OMVs and LPS; assay type: binding; conditions: averaged for cells
Experimental: OMV-coated and whole cell-coated C1 chips were prepared as already described with the following changes and LPS-coated surfaces were prepared identically but with rough-LPS extracted from E. coli F583 (Rd mutant, Sigma #L6893). For LPS, cloudy colloid suspension (above its CMC, ~1 mg/ml) contains LPS micelles that were injected and captured. For all formats, sample buffer and running buffer were composed of Dulbecco’s phosphate-buffered salt solution containing 0.0005% tween-80 (Sigma), 1 mM calcium and 0.5 mM magnesium (Fisher Scientific), pH 7.4. Analysis and compartment temperatures were both set to 37 °C. Freshly prepared OMV-coated or whole cell-coated sensing surfaces were employed for each injection of polymyxin B while LPS-coated sensing surfaces could be fully regenerated by injecting 50 mM CHAPS. Reversibly bound PMBN could be reinjected over all surfaces without requiring regeneration as it fully dissociated within a few minutes.
Fresh sensing surfaces coated with whole cells and OMVs were prepared and 325 nM polymyxin B was injected at […] for 120 s over both. This injection was repeated after a long delay, and without regeneration, in order to allow free sites to become available thereby resulting in two polymyxin B binding curves for each sensing surface (Fig. 3E, F). […]

E. coli WT = assay type: cell-based
Experimental: as §1

Structure (SMILES) | pKd (bacterial cells; read-out: equilibrium binding constant KD, lower end) | pKd (bacterial cells; read-out: equilibrium binding constant KD, upper end) | t1/2 of tightly bound state (wt-OMVs; 25 and 37 °C) [h] | t1/2 (wt-OMVs; 25 °C) | t1/2 (wt-OMVs; 37 °C) | SPR binding profile [1] | MIC (S. aureus WT; LB + 0.0005% tween-80, overnight 37 °C) [µM] | antibacterial activity (S. aureus WT; highest tested concentration) | ka, apparent association rate constant [2] | antibacterial activity (E. coli WT) | MIC (E. coli WT; LB + 0.0005% tween-80, OD600 0.0005, overnight static growth 37 °C, complete growth inhibition) [µM]
CC[C@H](C)CCCCC(=O)N[C@@H](CCN)C(=O)N[C@H](C(=O)N[C@@H](CCN)C(=O)N[C@H]1CCNC(=O)[C@H]([C@@H](C)O)NC(=O)[C@H](CCN)NC(=O)[C@H](CCN)NC(=O)[C@H](CC(C)C)NC(=O)[C@@H](Cc2ccccc2)NC(=O)[C@H](CCN)NC1=O)[C@@H](C)O [Polymyxin B] (X1-[Dab]T[Dab][Dab][Dab][dF]L[Dab][Dab]T; lactam 4-C (inferred); N-terminus assumed) | 6.40 | < 4.00 | > 6 | 6.86 (2.11) h | 7.27 (2.15) h | same polymyxin B binding profiles were observed | >40 | no activity at the highest tested concentration | 2.1 (±0.78) × 10^5 M^−1 s^−1 | – | –
CC(C)C[C@@H]1NC(=O)[C@@H](Cc2ccccc2)NC(=O)[C@H](CCN)NC(=O)[C@@H](NC(=O)[C@H](CCN)NC(=O)[C@@H](N)[C@@H](C)O)CCNC(=O)[C@H]([C@@H](C)O)NC(=O)[C@H](CCN)NC(=O)[C@H](CCN)NC1=O [PMBN] (H-T[Dab][Dab][Dab][dF]L[Dab][Dab]T; lactam 3-C) | – | – | – | – | – | – | – | – | – | lacks the antibacterial activity of polymyxin B | >40
